Results as given in paper PMC3954597 (Biochemistry, 2014).
Like-named read-outs stand apart in the source and are kept apart here. Square brackets hold non-standard residues; d marks the D form. pY = N[C@@H](Cc1ccc(OP(=O)(O)O)cc1)C(=O)O

Columns and labels:
HePTP = details: cited from earlier work
TCPTP = target: T1, TCPTP (Homo sapiens, UniProt P17706); experiment: PTP assay, TCPTP; type: biochemical; details: catalytic domain; 100 mM HEPES pH 7.4; monitored at 282 nm
T1 sequence (P17706 1-314): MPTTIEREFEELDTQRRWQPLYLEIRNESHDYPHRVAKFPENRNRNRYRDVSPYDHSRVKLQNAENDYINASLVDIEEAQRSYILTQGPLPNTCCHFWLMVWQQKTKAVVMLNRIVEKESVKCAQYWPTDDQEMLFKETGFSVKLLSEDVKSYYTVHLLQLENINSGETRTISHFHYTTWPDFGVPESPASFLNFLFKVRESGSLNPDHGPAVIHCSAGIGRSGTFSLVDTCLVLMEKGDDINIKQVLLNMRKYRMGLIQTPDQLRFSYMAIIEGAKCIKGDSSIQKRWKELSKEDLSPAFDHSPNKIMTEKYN

SHP-1 = SHP-1 (Homo sapiens, UniProt P29350); details: catalytic domain; cited from earlier work
SHP-2 = target: T2, SHP-2 (Homo sapiens, UniProt Q06124); details: catalytic domain; cited from earlier work
T2 sequence (Q06124 199-593): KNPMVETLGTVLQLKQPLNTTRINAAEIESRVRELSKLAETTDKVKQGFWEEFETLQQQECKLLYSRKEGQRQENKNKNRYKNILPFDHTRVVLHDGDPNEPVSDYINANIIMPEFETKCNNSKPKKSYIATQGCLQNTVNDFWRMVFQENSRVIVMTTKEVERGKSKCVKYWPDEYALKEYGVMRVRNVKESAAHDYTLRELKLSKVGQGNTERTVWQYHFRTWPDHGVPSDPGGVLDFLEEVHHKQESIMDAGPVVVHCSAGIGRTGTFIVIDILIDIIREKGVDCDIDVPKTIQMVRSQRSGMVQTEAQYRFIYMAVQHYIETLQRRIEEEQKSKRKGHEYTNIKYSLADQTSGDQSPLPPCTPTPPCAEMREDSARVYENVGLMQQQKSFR

[1] = target: T3, PTP-PEST catalytic domain (aa 5-300), GST fusion (human) (UniProt Q05209)
T3 sequence: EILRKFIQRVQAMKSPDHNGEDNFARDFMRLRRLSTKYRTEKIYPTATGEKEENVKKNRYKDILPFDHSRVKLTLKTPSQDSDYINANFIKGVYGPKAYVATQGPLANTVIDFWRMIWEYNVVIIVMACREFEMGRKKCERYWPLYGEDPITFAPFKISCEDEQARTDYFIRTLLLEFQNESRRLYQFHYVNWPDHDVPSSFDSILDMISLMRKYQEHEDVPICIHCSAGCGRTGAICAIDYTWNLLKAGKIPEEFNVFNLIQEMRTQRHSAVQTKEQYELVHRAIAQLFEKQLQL

[2] = target: T4, R47E PTP1B catalytic domain (amino acids 1-321) (human) (UniProt P18031)
T4 sequence: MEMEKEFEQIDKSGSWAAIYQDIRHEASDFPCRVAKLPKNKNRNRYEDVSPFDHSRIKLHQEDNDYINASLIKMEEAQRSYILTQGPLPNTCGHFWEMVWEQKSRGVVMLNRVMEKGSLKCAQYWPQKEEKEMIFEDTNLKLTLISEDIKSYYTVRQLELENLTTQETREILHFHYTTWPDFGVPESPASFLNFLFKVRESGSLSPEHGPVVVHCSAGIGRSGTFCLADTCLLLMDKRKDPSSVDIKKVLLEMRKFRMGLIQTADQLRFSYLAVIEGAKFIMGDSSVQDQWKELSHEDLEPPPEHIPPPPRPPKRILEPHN

[3] = target: T5, wild-type PTP1B catalytic domain (amino acids 1-321) (human) (UniProt P18031)
T5 sequence: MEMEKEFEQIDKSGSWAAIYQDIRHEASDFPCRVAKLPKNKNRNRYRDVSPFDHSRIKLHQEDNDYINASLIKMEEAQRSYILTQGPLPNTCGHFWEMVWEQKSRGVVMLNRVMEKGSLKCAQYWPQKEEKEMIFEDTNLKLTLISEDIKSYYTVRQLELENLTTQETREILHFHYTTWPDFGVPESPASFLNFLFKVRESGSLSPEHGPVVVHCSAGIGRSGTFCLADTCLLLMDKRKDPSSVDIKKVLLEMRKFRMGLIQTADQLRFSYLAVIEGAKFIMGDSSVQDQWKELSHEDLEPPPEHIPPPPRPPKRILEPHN

[4] = target: T6, R24M PTP1B catalytic domain (amino acids 1-321) (human) (UniProt P18031)
T6 sequence: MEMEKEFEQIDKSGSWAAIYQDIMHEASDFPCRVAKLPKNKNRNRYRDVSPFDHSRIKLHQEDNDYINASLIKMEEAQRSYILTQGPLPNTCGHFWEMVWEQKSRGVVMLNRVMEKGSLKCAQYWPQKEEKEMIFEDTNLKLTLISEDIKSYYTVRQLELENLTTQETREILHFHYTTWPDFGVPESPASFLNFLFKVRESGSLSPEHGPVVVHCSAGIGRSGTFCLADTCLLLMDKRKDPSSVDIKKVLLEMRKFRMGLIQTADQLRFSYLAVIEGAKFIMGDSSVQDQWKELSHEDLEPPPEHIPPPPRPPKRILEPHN

[5] = target: T5, wild-type PTP1B catalytic domain (amino acids 1-321) (human); remark: listed apart in the source
[6] = target: T7, HePTP (aa 22-335), GST fusion (human) (UniProt P35236)
T7 sequence: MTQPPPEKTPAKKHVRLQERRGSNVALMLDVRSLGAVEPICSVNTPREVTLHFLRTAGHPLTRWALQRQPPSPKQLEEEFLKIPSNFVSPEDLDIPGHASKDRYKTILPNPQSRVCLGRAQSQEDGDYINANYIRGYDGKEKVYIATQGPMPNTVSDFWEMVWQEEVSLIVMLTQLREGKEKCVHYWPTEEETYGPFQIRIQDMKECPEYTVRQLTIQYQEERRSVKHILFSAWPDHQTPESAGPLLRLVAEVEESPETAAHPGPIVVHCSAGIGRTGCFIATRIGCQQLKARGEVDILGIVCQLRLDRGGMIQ

SHP-1, sequence (P29350 205-595): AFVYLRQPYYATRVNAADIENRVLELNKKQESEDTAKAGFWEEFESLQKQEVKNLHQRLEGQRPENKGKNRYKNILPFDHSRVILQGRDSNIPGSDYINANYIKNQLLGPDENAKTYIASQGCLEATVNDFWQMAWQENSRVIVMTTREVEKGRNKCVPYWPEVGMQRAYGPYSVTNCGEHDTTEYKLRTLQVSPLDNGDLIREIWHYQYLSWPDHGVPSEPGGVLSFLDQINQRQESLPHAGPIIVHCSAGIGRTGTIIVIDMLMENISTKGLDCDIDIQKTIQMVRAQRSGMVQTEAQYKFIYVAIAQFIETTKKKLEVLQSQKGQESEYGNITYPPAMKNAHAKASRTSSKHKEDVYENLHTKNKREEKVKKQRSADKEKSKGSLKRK

## DHTGFLpTEpY^187VATRW [reference compound]
HePTP
  kcat/KM: 4800 M⁻¹ s⁻¹

## WDEDFpYDWEF
TCPTP
  Km: 0.31 ± 0.01 µM
  kcat: 9.0 ± 0.4 s⁻¹
  kcat/KM x10^6: 29 x10^6 M^−1 s^−1
SHP-1
  Km: 3.2 ± 0.3 µM
  kcat: 75 ± 2 ^c s^−1
  kcat/KM x10^6: 23 ^c x10^6 M^−1 s^−1
SHP-2
  Km: 6.3 ± 0.4 µM
  kcat: 43 ± 1 ^c s^−1
  kcat/KM x10^6: 6.8 ^c x10^6 M^−1 s^−1

## phospho-ERK2 protein: phosphorylated ERK2 protein, HePTP substrate recruited via KIM domain
HePTP
  rate of dephosphorylation at the same site (pY187): 2.6 × 10^6 M^−1 s^−1

B1: Ac-YRKRFpYRYKF-NH2 (basic) (peptide)
peptide: Ac-YRKRF[pY]RYKF-NH2
SMILES: CC(=O)N[C@@H](Cc1ccc(O)cc1)C(=O)N[C@@H](CCCNC(=N)N)C(=O)N[C@@H](CCCCN)C(=O)N[C@@H](CCCNC(=N)N)C(=O)N[C@@H](Cc1ccccc1)C(=O)N[C@@H](Cc1ccc(OP(=O)(O)O)cc1)C(=O)N[C@@H](CCCNC(=N)N)C(=O)N[C@@H](Cc1ccc(O)cc1)C(=O)N[C@@H](CCCCN)C(=O)N[C@@H](Cc1ccccc1)C(N)=O
[1]
  kcat/KM, steady-state dephosphorylation of the pY peptide (KM not given): 1500 M⁻¹ s⁻¹

B2: Ac-ASSDEpYAA-NH2 (peptide)
peptide: Ac-ASSDE[pY]AA-NH2
SMILES: CC(=O)N[C@@H](C)C(=O)N[C@@H](CO)C(=O)N[C@@H](CO)C(=O)N[C@@H](CC(=O)O)C(=O)N[C@@H](CCC(=O)O)C(=O)N[C@@H](Cc1ccc(OP(=O)(O)O)cc1)C(=O)N[C@@H](C)C(=O)N[C@@H](C)C(N)=O
[2]
  KM, steady-state dephosphorylation of the pY peptide: 32 µM
[3]
  KM, steady-state dephosphorylation of the pY peptide: 1.8 µM
[4]
  KM, steady-state dephosphorylation of the pY peptide: 3.8 µM
[5]
  KM, steady-state dephosphorylation of the pY peptide: 1.9 µM

B3: Ac-YDEDFpYDYEF-NH2 (acidic) (peptide)
peptide: Ac-YDEDF[pY]DYEF-NH2
SMILES: CC(=O)N[C@@H](Cc1ccc(O)cc1)C(=O)N[C@@H](CC(=O)O)C(=O)N[C@@H](CCC(=O)O)C(=O)N[C@@H](CC(=O)O)C(=O)N[C@@H](Cc1ccccc1)C(=O)N[C@@H](Cc1ccc(OP(=O)(O)O)cc1)C(=O)N[C@@H](CC(=O)O)C(=O)N[C@@H](Cc1ccc(O)cc1)C(=O)N[C@@H](CCC(=O)O)C(=O)N[C@@H](Cc1ccccc1)C(N)=O
[6]
  KM, steady-state dephosphorylation of the pY peptide: 280 µM
[1]
  KM, steady-state dephosphorylation of the pY peptide: 2.2 µM

B4: Ac-SASASpYSASA-NH2 (neutral) (peptide)
peptide: Ac-SASAS[pY]SASA-NH2
SMILES: CC(=O)N[C@@H](CO)C(=O)N[C@@H](C)C(=O)N[C@@H](CO)C(=O)N[C@@H](C)C(=O)N[C@@H](CO)C(=O)N[C@@H](Cc1ccc(OP(=O)(O)O)cc1)C(=O)N[C@@H](CO)C(=O)N[C@@H](C)C(=O)N[C@@H](CO)C(=O)N[C@@H](C)C(N)=O
[1]
  KM, steady-state dephosphorylation of the pY peptide: 800 µM
